The target of this experiment is T1, recombinant human ALX receptor (Homo sapiens, UniProt P25090).
T1 construct: expressed in transfected cells; host or cells: HEK293 (HEK293-hALXR-Gα16)
T1 sequence (P25090 1-351): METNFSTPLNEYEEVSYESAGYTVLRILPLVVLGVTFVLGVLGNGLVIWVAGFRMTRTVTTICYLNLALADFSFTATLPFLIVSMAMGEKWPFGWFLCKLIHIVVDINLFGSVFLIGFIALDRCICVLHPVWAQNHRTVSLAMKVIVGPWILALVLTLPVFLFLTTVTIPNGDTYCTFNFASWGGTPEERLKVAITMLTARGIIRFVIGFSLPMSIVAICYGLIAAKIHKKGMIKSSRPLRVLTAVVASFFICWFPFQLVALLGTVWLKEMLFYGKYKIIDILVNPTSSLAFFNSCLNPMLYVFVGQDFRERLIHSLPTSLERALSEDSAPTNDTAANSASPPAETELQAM
Briefly: Intracellular calcium measurements (FLIPR), ALX receptor agonistic activity. The experiment is classed as cell-based. The following applies: HEK293-hALXR-Gα16 cells, Fluo-4 calcium signal, normalized to WKYMVm 10 nM. The gist of the method:
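Agonist-induced calcium flux was read by FLIPR (488/540 nm) as baseline-subtracted peak emission, expressed relative to WKYMVm at 10 nM final. Cells used: HEK293-hALXR-Gα16, dye-loaded 60 min at 37° C. with 1 μM Fluo-4 AM before compound dose-response addition.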
On the technique in general: A change in cytosolic calcium serves as a functional read-out for many receptors and channels.

Structures can show the parent of a compound that is named as a salt.

As to `COc1ccc(CC(NC(=O)Nc2ccnn2-c2ccncc2)c2nc3ccccc3[nH]2)cc1` (stereo not shown) [Example 409, 1-(1-(1H-benzo[d]imidazol-2-yl)-2-(4-methoxyphenyl)ethyl)-3-(1-(pyridin-4-yl)-1H-pyrazol-5-yl)urea], the EC50 – broadly, the midpoint of the concentration-response curve – is 362 nM. With `COc1ccc(CC(NC(=O)N[C@H]2CC[C@H](O)CC2)c2nc3ccccc3[nH]2)cc1F` (relative stereo) [Example 167, 1-(1-(1H-Benzo[d]imidazol-2-yl)-2-(3-fluoro-4-methoxyphenyl)ethyl)-3-(trans-4-hydroxycyclohexyl)urea], the 50% effective concentration (EC50) came out at 9.5 nM. The value for `COc1ccc(C[C@@H](NC(=O)N[C@@H]2CC[C@H](O)C2)c2nc3ccccc3[nH]2)cc1` (relative stereo) [Example 171, 1-((R)-1-(1H-Benzo[d]imidazol-2-yl)-2-(4-methoxyphenyl)ethyl)-3-((1R*,3S*)-3-hydroxycyclopentyl)urea] was 38 nM; that for `COc1ccc(CC(NC(=O)NC2CCC(C)(O)CC2)c2nc3ccccc3[nH]2)c(F)c1` (single isomer, unassigned; ent-1) [Example 311, 1-(1-(1H-Benzo[d]imidazol-2-yl)-2-(2-fluoro-4-methoxyphenyl)ethyl)-3-(trans-4-hydroxy-4-methylcyclohexyl)urea (ent-1)] was 3.6 nM. For `COc1ccc(C[C@@H](NC(=O)N[C@H]2CC[C@H](O)CC2)c2nc3ccc(Cl)cc3[nH]2)cc1` [Example 36, 1-((R)-1-(6-Chloro-1H-benzo[d]imidazol-2-yl)-2-(4-methoxyphenyl)ethyl)-3-(trans-4-hydroxycyclohexyl)urea] the value was 1 nM; for `COc1ccc(C[C@@H](NC(=O)NCCc2ccccc2Cl)c2nc3ccccc3[nH]2)cc1` [Example 56, (R)-1-(1-(1H-Benzo[d]imidazol-2-yl)-2-(4-methoxyphenyl)ethyl)-3-(2-chlorophenethyl)urea hydrochloride], 109 nM. For `O=C(NC(Cc1ccc(Br)cc1F)c1nc2ccccc2[nH]1)NC12CCC(O)(CC1)CC2` (stereo not shown) [Example 254, 1-(1-(1H-Benzo[d]imidazol-2-yl)-2-(4-bromo-2-fluorophenyl)ethyl)-3-(4-hydroxybicyclo[2.2.2]octan-1-yl)urea] the value was 21 nM; for `COc1ccc(C[C@@H](NC(=O)N[C@@H](C)c2cccc(Cl)c2)c2nc3ccccc3[nH]2)cc1` [Example 325, 1-((R)-1-(1H-Benzo[d]imidazol-2-yl)-2-(4-methoxyphenyl)ethyl)-3-((S)-1-(3-chlorophenyl)ethyl)urea], 186 nM; for `COc1ccc(C[C@@H](NC(=O)N[C@H](C)c2ccccc2)c2nc3ccccc3[nH]2)cc1` [Example 349, 1-((R)-1-(1H-Benzo[d]imidazol-2-yl)-2-(4-methoxyphenyl)ethyl)-3-((R)-1-phenylethyl)urea], 287 nM. For the molecule `COc1ccc(C[C@@H](NC(=O)NCc2ccccc2C)c2nc3ccccc3[nH]2)cc1` [Example 202, (R)-1-(1-(1H-Benzo[d]imidazol-2-yl)-2-(4-methoxyphenyl)ethyl)-3-(2-methylbenzyl)urea], the EC50 is 602 nM. The value for `COc1ccc(C[C@@H](NC(=O)NCC2CCNCC2)c2nc3ccccc3[nH]2)cc1` [Example 149, (R)-1-(1-(1H-Benzo[d]imidazol-2-yl)-2-(4-methoxyphenyl)ethyl)-3-(piperidin-4-ylmethyl)urea] was 168 nM. For `COc1ccc(CC(NC(=O)Nc2ccnn2Cc2ccccc2)c2nc3ccccc3[nH]2)cc1` (stereo not shown) [Example 415, 1-(1-(1H-benzo[d]imidazol-2-yl)-2-(4-methoxyphenyl)ethyl)-3-(1-benzyl-1H-pyrazol-5-yl)urea] the value was 101 nM; for `COc1ccc(C[C@@H](NC(=O)NCCN2CCN(C)CC2)c2nc3ccccc3[nH]2)cc1` [Example 151, (R)-1-(1-(1H-Benzo[d]imidazol-2-yl)-2-(4-methoxyphenyl)ethyl)-3-(2-(4-methylpiperazin-1-yl)ethyl)urea], 572 nM.

On to `COc1ccc(CC(NC(=O)NCCc2ccccc2OC)c2nc3ccccc3[nH]2)cc1` (stereo not shown) [Example 40, 1-(1-(1H-Benzo[d]imidazol-2-yl)-2-(4-methoxyphenyl)ethyl)-3-(2-methoxyphenethyl)urea], for which the EC50 was 62 nM.

In the case of `COc1ccc(CC(NC(=O)NCCc2c(C)noc2C)c2nc3ccccc3[nH]2)cc1` (stereo not shown) [Example 42, 1-(1-(1H-Benzo[d]imidazol-2-yl)-2-(4-methoxyphenyl)ethyl)-3-(2-(3,5-dimethylisoxazol-4-yl)ethyl)urea], the EC50 was 814 nM. The value for `COc1ccc(C[C@@H](NC(=O)NC2CCN(C(C)=O)CC2)c2nc3ccccc3[nH]2)cc1` [Example 138, (R)-1-(1-(1H-Benzo[d]imidazol-2-yl)-2-(4-methoxyphenyl)ethyl)-3-(1-acetylpiperidin-4-yl)urea] was 789 nM. For `COc1ccc(C[C@@H](NC(=O)N2CCCCC2)c2nc3ccccc3[nH]2)cc1` [Example 86, (R)—N-(1-(1H-Benzo[d]imidazol-2-yl)-2-(4-methoxyphenyl)ethyl)piperidine-1-carboxamide] the value was 400 nM. For `COc1ccc(C[C@@H](NC(=O)N[C@@H]2CNC[C@@H]2F)c2nc3ccccc3[nH]2)cc1` (relative stereo) [Example 185, 1-((R)-1-(1H-Benzo[d]imidazol-2-yl)-2-(4-methoxyphenyl)ethyl)-3-((3R*,4S*)-4-fluoropyrrolidin-3-yl)urea] the value was 143 nM. With `COc1ccc(C[C@@H](NC(=O)N[C@H]2CC[C@@](C)(O)CC2)c2nc3ccccc3[nH]2)cc1` [Example 189, 1-((R)-1-(1H-Benzo[d]imidazol-2-yl)-2-(4-methoxyphenyl)ethyl)-3-(cis-4-hydroxy-4-methylcyclohexyl)urea], the EC50 was determined as 19 nM. For `COc1ccc(C[C@@H](NC(=O)NCC2CCCO2)c2nc3ccccc3[nH]2)cc1` (stereo partly drawn) [Example 57, 1-((R)-1-(1H-Benzo[d]imidazol-2-yl)-2-(4-methoxyphenyl)ethyl)-3-((tetrahydrofuran-2-yl)methyl)urea hydrochloride] the value was 82 nM.

In the case of `COC[C@H](NC(=O)N[C@H](Cc1ccc(OC)cc1)c1nc2ccccc2[nH]1)c1ccccc1` [Example 201, 1-((R)-1-(1H-Benzo[d]imidazol-2-yl)-2-(4-methoxyphenyl)ethyl)-3-((R)-2-methoxy-1-phenylethyl)urea], the EC50 was found to be 54 nM. For `COc1ccc(CNC(=O)N[C@H](Cc2ccc(OC)cc2)c2nc3ccccc3[nH]2)cc1` [Example 387, (R)-1-(1-(1H-Benzo[d]imidazol-2-yl)-2-(4-methoxyphenyl)ethyl)-3-(4-methoxybenzyl)urea] the value was 1370 nM; for `COc1ccc(C[C@@H](NC(=O)N[C@@H](C)c2ccc(OC)cc2)c2nc3ccccc3[nH]2)cc1` [Example 330, 1-((R)-1-(1H-Benzo[d]imidazol-2-yl)-2-(4-methoxyphenyl)ethyl)-3-((S)-1-(4-methoxyphenyl)ethyl)urea], 205 nM; for “(R)-tert-Butyl 4-((3-(1-(1H-benzo[d]imidazol-2-yl)-2-(4-methoxyphenyl)ethyl)ureido)methyl)piperidine-1-carboxylate [Example 106]”, 538 nM.

With `COc1ccc(CC(NC(=O)N[C@H]2CC[C@H](O)CC2)c2nc3ccc(F)cc3[nH]2)cc1F` (single isomer, unassigned; ent-2) [Example 371, 1-(1-(6-Fluoro-1H-benzo[d]imidazol-2-yl)-2-(3-fluoro-4-methoxyphenyl)ethyl)-3-(trans-4-hydroxycyclohexyl)urea (ent-2)], the EC50 came out at 250 nM. Consider `CC1(O)CCC(NC(=O)NC(Cc2ccc(Br)cc2F)c2nc3ccccc3[nH]2)CC1` (single isomer, unassigned; ent-1) [Example 264, 1-(1-(1H-Benzo[d]imidazol-2-yl)-2-(4-bromo-2-fluorophenyl)ethyl)-3-(trans-4-hydroxy-4-methylcyclohexyl)urea (ent-1)], for which the EC50 was 9 nM. With `COc1ccc(C[C@@H](NC(=O)NC2CCN(CC(F)F)CC2)c2nc3ccccc3[nH]2)cc1` [Example 182, (R)-1-(1-(1H-Benzo[d]imidazol-2-yl)-2-(4-methoxyphenyl)ethyl)-3-(1-(2,2-difluoroethyl)piperidin-4-yl)urea], the half-maximal effective concentration (EC50) stood at 40 nM. Turning to `COc1c(F)cc(CC(NC(=O)N[C@H]2CC[C@H](O)CC2)c2nc3ccccc3[nH]2)cc1F` (relative stereo) [Example 241, 1-(1-(1H-Benzo[d]imidazol-2-yl)-2-(3,5-difluoro-4-methoxyphenyl)ethyl)-3-(trans-4-hydroxycyclohexyl)urea], the EC50 was determined as 138 nM. Turning to `CCOCc1ccccc1CNC(=O)NC(Cc1ccc(OC)cc1)c1nc2ccccc2[nH]1` (stereo not shown) [Example 50, 1-(1-(1H-Benzo[d]imidazol-2-yl)-2-(4-methoxyphenyl)ethyl)-3-(2-(ethoxymethyl)benzyl)urea], the EC50 turned out to be 136 nM. The value for `COc1ccc(C[C@@H](NC(=O)NCC2(c3ccccc3)CCCCC2)c2nc3ccccc3[nH]2)cc1` [Example 278, (R)-1-(1-(1H-Benzo[d]imidazol-2-yl)-2-(4-methoxyphenyl)ethyl)-3-((1-phenylcyclohexyl)methyl)urea] was 51 nM; that for `COc1ccc(C[C@@H](NC(=O)NCc2ncccc2C)c2nc3ccccc3[nH]2)cc1` [Example 287, (R)-1-(1-(1H-Benzo[d]imidazol-2-yl)-2-(4-methoxyphenyl)ethyl)-3-((3-methylpyridin-2-yl)methyl)urea] was 92 nM.

The values above are taken from patent US9663473B2 (Actelion Pharmaceuticals Ltd, priority 2013, dated 2017).
